Test results published in patent US20040086536A1, “Therapeutic agents and treatment kits for hypertrophic pyloric stenosis” (priority 2002, published 2004).
Counter-ions that a name gives are not always drawn.

Assays:
[1] = system: hypertrophic pyloric stenosis; assay: Treatment of infantile patients with hypertrophic pyloric stenosis (disappearance of vomiting, hospitalization); settings: atropine sulfate 0.1 mg/kg/day iv.
Method: In the present treating examples, a solution for intravenous injection of atropine sulfate was used as the anticholinergic agent and a nitroglycerin patch was used as the NO donor.
After confirming that the pH and electrolytes in the blood restore in the normal ranges in individual infantile patients, a daily dosage of atropine sulfate (0.1 mg/kg/day) was divided by the number of milk feeding and the divided dosage of atropine sulfate was administered intravenously 10 minutes before each milk feeding over 3 minutes or longer. Except in the cases where abnormally strong side effects were produced, the dosage amounts for subsequent intravenous injections were not changed principally. […] The minimum dosage amount is 0.04 mg/kg/day.
In parallel with the atropine sulfate intravenous injection, a nitroglycerin transdermal patch (Millisrol Tape (registered trademark)): 5 mg/patch: Nippon Kayaku Co., Ltd.; or Minitro Tape (registered trademark): 5 mg/patch: Nisshin-Kyorin Pharmaceutical Co., Ltd.) was used. […]
To prevent the occurrence of aspiration pneumonia induced by vomiting and the induction of contraction of gastric smooth muscles and pyloric sphincters, isotonic drinking solution was fed orally as the infantile patient wanted until the vomiting subsided. […] The body weight and the daily amount of milk intake were measured every day. […]

[2] = system: hypertrophic pyloric stenosis; settings: cited from earlier work

## CN1[C@@H]2CC[C@H]1C[C@@H](OC(=O)C(CO)c1ccccc1)C2 (some centres unmarked) [atropine sulfate (iv.), atropine sulfate]
[1]
  Duration of vomiting (onset of action) after the initiation of the treatment: 5 ± 2 days
  duration of hospitalization: 9 ± 2 days
[2]; atropine sulfate therapy, contraction of the pyloric muscle often reappears afterward
  time for which the spasm disappears after the administration: 20 to 30 min
[2]; intravenous injection, needs long term hospitalization
  effectiveness of treatment: high
[2]; oral administration
  effectiveness rate of treatment: less than 50%
